Experiments:
[1] = target: T1, human dopamine transporter (hDAT) (Homo sapiens, UniProt Q01959); assay: Human transporter binding studies: radioligand binding to cloned hDAT ([3H]WIN35428); conditions: for Kd: HEK-293 cell membranes, 1 nM [3H]WIN35428, 22° C., 1 hour, geometric mean of at least three experiments; for specificity for hDAT compared to venlafaxine (in words): comparison of Kd values with venlafaxine
T1 construct: expressed in transfected cells
Description: (§1) The cells were incubated in 10% CO2, 90% air at 37° C. and 100% humidity. The hNET cell cultures contained 250 μg/mL geneticin sulfate. The cells were grown to 70–80% confluency prior to harvesting.
(§2) Cell membranes containing hSERT, hNET, or hDAT were prepared from the cell lines to assay ligand binding for each of the transporters. […] The washed cells were incubated for 5 minutes at 38° C. in 10 mL solution 1 containing 100 mM ethylene glycol-bis N,N,N′,N′-tetraacetic acid (EGTA). The cells were then scraped from the flask surface with a rubber spatula, placed into a centrifuge tube, and collected by centrifugation at 1000×g for 5 minutes at 4° C. The resulting supernatant was discarded, and the cell pellet was resuspended in 0.5 to 1.0 mL of the appropriate binding buffer (described below). The resuspended cell pellet was homogenized using a Polytron for 10 seconds at setting 6. The resulting homogenate was centrifuged at about 36,000×g for 10 minutes at 4° C. The supernatant was discarded, and the pellet was resuspended in the same volume of the appropriate binding buffer and centrifuged again. The supernatant was discarded, and the final pellet containing cell membranes was resuspended in the appropriate binding buffer and stored at −80° C. until use.
To assess binding to the cloned hDAT, cells expressing hDAT were homogenized in 50 mM Tris-HCl with 120 mM NaCl (pH 7.4). […] The reactions were incubated at 22° C. for 1 hour. Following incubation, the reactions were terminated by rapid filtration through separate GF/B filter strips pretreated with 0.2% polyethylenimine in a 48-well Brandel cell harvester. The cell membrane-containing filter strips were then rinsed five times with ice-cold 0.9% NaCl. After rinsing, individual filters were cut from the strip and placed in a scintillation vial containing 6.5 mL of Redi-Safe (Beckman Instruments, Fullerton, Calif.). Radioactivity was measured with a Beckman liquid scintillation counter (LS 5000TD).
(§3) The program was modified to calculate the Hill coefficient (nH). Data are presented as geometric mean ±S.E.M. of at least three independent experiments. One-component models and two-component models were compared using the root mean square error of each fit and the F test.

[2] = target: T2, human serotonin transporter (hSERT) (Homo sapiens, UniProt P31645); assay: Human transporter binding studies: radioligand binding to cloned hSERT ([3H]imipramine); conditions: for Kd: HEK-293 cell membranes, 1.0 nM [3H]imipramine, 22° C., 60 minutes, geometric mean of at least three experiments; for specificity for hSERT compared to venlafaxine (in words): comparison of Kd values with venlafaxine; for specificity for hSERT relative to hNET and hDAT (in words): comparison of Kd values between transporters
T2 construct: expressed in transfected cells
Description: as §1, §2
Radioligand binding assays for the indicated transporters were performed as follows. To assess binding to the cloned hSERT, cells expressing hSERT were homogenized in 50 mM Tris-HCl with 120 mM NaCl and 5 mM KCl (pH 7.4). […] The reactions were incubated at 22° C. for 60 minutes. Following incubation, the reactions were terminated by rapid filtration through separate GF/B filter strips pretreated with 0.2% polyethylenimine in a 48-well Brandel cell harvester. The cell membrane-containing filter strips were then rinsed five times with ice-cold 0.9% NaCl. After rinsing, individual filters were cut from the strip and placed in a scintillation vial containing 6.5 mL of Redi-Safe (Beckman Instruments, Fullerton, Calif.). Radioactivity was measured with a Beckman liquid scintillation counter (LS 5000TD).
as §3

[3] = target: T3, human norepinephrine transporter (hNET) (Homo sapiens, UniProt P23975); assay: Human transporter binding studies: radioligand binding to cloned hNET ([3H]nisoxetine); conditions: for Kd: HEK-293 cell membranes, 0.5 nM [3H]nisoxetine, 22° C., 60 minutes, geometric mean of at least three experiments; for specificity for hNET compared to venlafaxine (in words): comparison of Kd values with venlafaxine
T3 construct: expressed in transfected cells
Description: as §1, §2
To assess binding to the cloned hNET, cells expressing hNET were homogenized in 50 mM Tris-HCl with 300 mM NaCl and 5 mM KCl (pH 7.4). […] A reaction to determine non-specific binding consisted of 25 μg cell membrane protein, 0.5 nM [^3H]nisoxetine, and 1 μM final concentration of unlabeled nisoxetine. The reactions were incubated at 22° C. for 60 minutes. Following incubation, the reactions were terminated by rapid filtration through separate GF/B filter strips pretreated with 0.2% polyethylenimine in a 48-well Brandel cell harvester. The cell membrane-containing filter strips were then rinsed five times with ice-cold 0.9% NaCl. After rinsing, individual filters were cut from the strip and placed in a scintillation vial containing 6.5 mL of Redi-Safe (Beckman Instruments, Fullerton, Calif.). Radioactivity was measured with a Beckman liquid scintillation counter (LS 5000TD).
as §3

T3 sequence (P23975 whole entry): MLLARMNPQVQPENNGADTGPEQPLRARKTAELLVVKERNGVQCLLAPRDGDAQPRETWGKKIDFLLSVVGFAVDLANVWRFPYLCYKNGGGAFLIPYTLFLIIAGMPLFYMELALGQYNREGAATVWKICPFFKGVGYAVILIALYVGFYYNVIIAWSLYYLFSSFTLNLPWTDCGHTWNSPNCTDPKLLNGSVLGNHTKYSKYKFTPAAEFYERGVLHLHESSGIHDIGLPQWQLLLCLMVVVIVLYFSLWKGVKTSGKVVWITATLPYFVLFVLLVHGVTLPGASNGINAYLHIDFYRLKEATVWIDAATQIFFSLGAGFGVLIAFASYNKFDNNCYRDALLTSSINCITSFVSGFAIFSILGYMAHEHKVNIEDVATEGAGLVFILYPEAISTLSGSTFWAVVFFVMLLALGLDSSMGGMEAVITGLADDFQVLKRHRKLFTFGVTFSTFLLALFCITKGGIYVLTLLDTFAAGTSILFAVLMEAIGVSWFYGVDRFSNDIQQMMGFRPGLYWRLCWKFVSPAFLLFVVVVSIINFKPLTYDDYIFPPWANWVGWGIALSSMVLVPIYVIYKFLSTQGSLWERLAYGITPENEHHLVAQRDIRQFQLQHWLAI
T2 sequence (P31645 whole entry): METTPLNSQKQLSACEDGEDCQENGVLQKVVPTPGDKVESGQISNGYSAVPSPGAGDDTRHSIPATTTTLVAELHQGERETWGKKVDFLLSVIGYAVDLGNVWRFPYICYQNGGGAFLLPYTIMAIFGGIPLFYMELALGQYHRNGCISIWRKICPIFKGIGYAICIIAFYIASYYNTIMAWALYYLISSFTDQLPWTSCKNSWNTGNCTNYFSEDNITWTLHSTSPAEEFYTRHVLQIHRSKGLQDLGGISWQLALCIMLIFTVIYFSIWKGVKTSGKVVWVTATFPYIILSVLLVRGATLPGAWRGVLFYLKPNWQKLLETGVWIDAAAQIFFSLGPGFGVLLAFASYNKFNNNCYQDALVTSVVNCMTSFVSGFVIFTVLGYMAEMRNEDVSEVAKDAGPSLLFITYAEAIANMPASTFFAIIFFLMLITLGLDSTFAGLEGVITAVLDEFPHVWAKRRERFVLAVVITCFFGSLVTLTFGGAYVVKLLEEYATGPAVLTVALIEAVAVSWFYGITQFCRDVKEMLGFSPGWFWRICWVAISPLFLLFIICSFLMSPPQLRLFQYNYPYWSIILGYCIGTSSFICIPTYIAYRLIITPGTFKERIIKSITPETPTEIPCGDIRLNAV
T1 sequence (Q01959 whole entry): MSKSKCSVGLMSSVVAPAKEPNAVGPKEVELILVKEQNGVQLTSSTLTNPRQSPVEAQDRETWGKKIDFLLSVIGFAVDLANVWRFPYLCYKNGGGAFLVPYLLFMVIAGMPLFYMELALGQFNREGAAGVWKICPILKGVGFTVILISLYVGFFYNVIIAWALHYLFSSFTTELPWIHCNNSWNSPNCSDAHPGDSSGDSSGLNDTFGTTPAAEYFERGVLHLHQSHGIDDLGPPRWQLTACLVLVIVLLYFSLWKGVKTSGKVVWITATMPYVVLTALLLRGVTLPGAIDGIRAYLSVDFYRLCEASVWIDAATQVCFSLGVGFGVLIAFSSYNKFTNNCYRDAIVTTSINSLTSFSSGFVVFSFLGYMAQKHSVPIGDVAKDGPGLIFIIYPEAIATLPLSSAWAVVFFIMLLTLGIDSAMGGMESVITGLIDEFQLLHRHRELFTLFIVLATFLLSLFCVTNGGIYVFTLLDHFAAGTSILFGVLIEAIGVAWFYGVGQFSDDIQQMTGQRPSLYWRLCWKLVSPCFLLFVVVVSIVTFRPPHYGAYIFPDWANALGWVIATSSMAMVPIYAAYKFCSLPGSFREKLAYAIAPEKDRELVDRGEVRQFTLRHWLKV

| Compound | Kd [1] [nM] | specificity for hDAT compared to venlafaxine (in words) [1] | Kd [2] [nM] | specificity for hSERT compared to venlafaxine (in words) [2] | Kd [3] [nM] | specificity for hNET compared to venlafaxine (in words) [3] | specificity for hSERT relative to hNET and hDAT (in words) [2] | binding to hNET ranked among all compounds tested (in words) [3] | specificity for hNET relative to hSERT and hDAT (in words) [3] |
| --- | --- | --- | --- | --- | --- | --- | --- | --- | --- |
| CC(C)[C@H](O)[C@@H](CN(C)C)c1ccc2ccccc2c1 [Compound D1, (2R, 3S)-N,N-dimethyl-3-hydroxy-4-methyl-2-(2′-naphthyl)pentylamine] | 150 | greater specificity for all three transporters compared to venlafaxine | 4.2 | greater specificity for all three transporters compared to venlafaxine | 7.4 | greater specificity for all three transporters compared to venlafaxine |  |  |  |
| CC(C)[C@@H](O)[C@H](CN(C)C)c1ccc2ccccc2c1 [Compound D2, (2S, 3R)-N,N-dimethyl-3-hydroxy-4-methyl-2-(2′-naphthyl)pentylamine] | 800 | greater specificity for all three transporters compared to venlafaxine | 2.6 | greater specificity for all three transporters compared to venlafaxine | 60 | greater specificity for all three transporters compared to venlafaxine | greater specificity for hSERT than for hNET or hDAT |  |  |
| CNCC(c1ccc2ccccc2c1)C(O)c1ccccc1 (racemic) [Compound A, racemic mixture of (2R, 3R)- and (2S, 3S)-N-methyl-3-hydroxy-2-(2′-naphthyl)-3-phenylpropylamine] | 130 |  | 6.3 |  | 0.25 |  |  | strongest binding to hNET of all the compounds tested | greater specificity for hNET than for hSERT or hDAT |
| CC(C)C(O)C(CN(C)C)c1ccc2ccccc2c1 (racemic) [Compound D, racemic mixture of (2R, 3S)- and (2S, 3R)-N,N-dimethyl-3-hydroxy-4-methyl-2-(2′naphthyl)pentylamine] | 180 | more potent inhibitor of all three transporters compared to vanlafaxine | 0.3 | more potent inhibitor of all three transporters compared to vanlafaxine | 14.6 | more potent inhibitor of all three transporters compared to vanlafaxine | stronger binding to hSERT than to hNET or hDAT |  |  |
| CC(C)C(O)C(CN)c1ccc2ccccc2c1 (single isomer, unassigned) [Compound C1] | 1280 | greater specificity for all three transporters compared to venlafaxine | 7 | greater specificity for all three transporters compared to venlafaxine | 150 | greater specificity for all three transporters compared to venlafaxine | greater specificity for hSERT than for hNET of hDAT |  |  |
| CNCC(c1ccc2ccccc2c1)C(O)c1ccccc1 (racemic) [Compound B, racemic mixture of (2S, 3R)- and (2R, 3S)-N-methyl-3-hydroxy-2-(2′-naphthyl)-3-phenylpropylamine] | 390 | greater specificity for hDAT than the parent analogue venlfaxine |  |  |  |  |  |  |  |
| CC(C)C(O)C(CN)c1ccc2ccccc2c1 (single isomer, unassigned) [Compound C2] | 1600 | greater specificity for all three transporters compared to venlafaxine | 15.1 |  | 140 |  | greater specificity for hSERT than for hNET of hDAT |  |  |
| CN(C)C[C@H](c1ccc2ccccc2c1)[C@@H](O)c1ccccc1 (racemic) [F, racemic mixture of (2S, 3R)- and (2R, 3S)-N,N-dimethyl-3-hydroxy-2-(2′-naphthyl)-3-phenylpropylamine] |  | greater specificity for hDAT compared to vanlafaxine |  |  |  |  |  |  |  |
| CC(C)C(O)C(CN)c1ccc2ccccc2c1 (racemic) [Compound C, racemic mixture of (2R, 3S)- and (2S, 3R)-3-hydroxy-4-methyl-2-(2′-naphthyl)pentylamine] | 880 | greater specificity for all three transporters compared to venlafaxine | 5.7 | greater specificity for all three transporters compared to venlafaxine | 329 | greater specificity for all three transporters compared to venlafaxine | more potent inhibitor of hSERT than of hNET or hDAT |  |  |
| NCC(c1ccc2ccccc2c1)C(O)c1ccccc1 (racemic) [E, racemic mixture of (2S, 3R)- and (2R, 3S)-3-hydroxy-2-(2′naphthyl)-3-phenylpropylamine] | 420 | greater specificity for hDAT compared to vanlafaxine |  |  |  |  |  |  |  |

— US7214826B2, “Amine compounds and inhibiting neurotransmitter reuptake” (Mayo Foundation for Medical Education and Research, priority 2001, dated 2007)
